Results on two compounds are retold here after US8258309B2, “Azapeptide derivatives” (priority 2007, dated 2012).

The structures appear in SMILES notation. Where two headings read alike, the source gives them in different places.

Data set [1] can be described thus: Microsomal assay: stability in human liver microsomes. The class given is in vitro ADME. The conditions noted are these: for half-life at 1 μM: liver microsomes. The protocol:
Microsomal Assay. Human liver microsomes (20 mg/mL, pool of 50 individuals) were obtained from Xenotech LLC (Lenexa, Kans.). The incubation mixtures are prepared as follows. Stock solutions (10 mM) solutions of test Compounds 103, 106, 122 and of atazanavir were prepared in DMSO. The 10 mM stock solutions were diluted to 1 mM in acetonitrile (ACN). […] The microsome-test compound mixtures were added to wells of a 2 mL 96-well deep well polypropylene plate in triplicate. The plate was warmed to 37° C. before initiating the reactions by addition of prewarmed NADPH in 0.1 M potassium phosphate buffer, pH 7.4, containing 3 mM MgCl2. The final reaction mixture composition contained: • Liver Microsomes 0.5 mg/mL • NADPH 2 mM • Potassium Phosphate, pH 7.4 100 mM • Magnesium Chloride 3 mM • Test Compound 1.0 μM. The reaction mixtures were incubated at 37° C. and 50 μL aliquots were removed at 0, 3, 7, 12, 20, and 30 minutes and added to shallow-well 96-well plates which contained 50 μL of ice-cold ACN with internal standard to stop the reactions. The plates were stored at −20° C. for 30 minutes, after which 100 μL of water was added to the wells of the plate before centrifugation to pellet precipitated proteins. Supernatants were transferred to another 96-well plate and analyzed for amounts of parent remaining by LC-MS/MS using an Applied Biosystems API 4000 mass spectrometer. […] Data analysis was performed using Microsoft Excel Software. […] The results are shown in FIGS. 2 and 3 and in Table 3, below: […]

Another data set is described as follows: in vivo. Conditions: chimpanzee, po. As for the experimental part:
Four chimps (two male and two female) were used in this study and were fasted overnight prior to administration of the compound solution. Animals were sedated with ketamine and/or telazol prior to dosing. Intravenous dosing was achieved by IV infusion over 30 minutes.
Approximately 4.5 mL of blood was collected into vacutainer tubes with sodium heparin as an anticoagulant at 0 (preinfusion), 15 min., 29.5 min (immediately before the end of the infusion), and then at 6, 15, 30, and 45 minutes, and 1, 2, 4, 6, 8, 10, 12, 24 hours after the infusion is stopped. A similar procedure was used to collect blood after oral dosing with samples taken at 0 (predose), 15, and 30 minutes, and at 1, 1.5, 2, 4, 6, 8, 10, 12, 24 hours postdose. Following sample collection, the vacutainer tubes were rocked by hand several times to insure adequate mixing. Blood samples were placed immediately on wet ice and centrifuged within 1 hour from time of collection. Following centrifugation, the resulting plasma was stored frozen at −70° C. until analysis. The results are summarized in FIGS. 4 and 5 and tables 6 and 7.
Run B: Same as Run A, except the dose was 150 mg orally of each of atazanavir and compounds 114 and 120, and the vehicle was 10 percent ethanol, 40 percent polypropylglycol in 2.5 percent citric acid.

Where [2] appears, read: human, pH 7.4, human liver microsomes 0.5 mg/mL, 1.0 μM test compound, first run (Table 2), read-out: T1/2 ± SD.
Setting [3] is: human, pH 7.4, human liver microsomes, repeated assay (Table 3), read-out: t1/2 (min) Avg ± SD (n = 3).

As to `COC(=O)N[C@H](C(=O)N[C@@H](Cc1ccccc1)[C@@H](O)CN(Cc1ccc(-c2ccccn2)cc1)NC(=O)[C@@H](NC(=O)OC)C(C)(C)C)C(C)(C)C` [Atazanavir, atazanavir, reference compound], the half-life at 1 μM in data set [1] (setting [2]) was determined as 18.6 ± 2.99 min; in data set [1] (setting [3]) it was 18.8 ± 0.6 min. For the same compound, in “in vivo” (24 h), the “concentration detected intact in urine” value was 3260 ng/mL. Moreover, in the data set “in vivo” (concentration detected intact in urine), the concentration at 24 h came to 1640 ng/mL.
With `[2H]C([2H])([2H])OC(=O)N[C@H](C(=O)N[C@@H](Cc1ccccc1)[C@@H](O)CN(Cc1ccc(-c2ccccn2)cc1)NC(=O)[C@@H](NC(=O)OC([2H])([2H])[2H])C(C([2H])([2H])[2H])(C([2H])([2H])[2H])C([2H])([2H])[2H])C(C([2H])([2H])[2H])(C([2H])([2H])[2H])C([2H])([2H])[2H]` [Compound 122, 1,14-Di(methyl-d3)(3S,8S,9S,12S)-3,12-bis[(1,1-dimethylethyl)-d9]-8-hydroxy-4,11-dioxo-9-(phenylmethyl)-6-[[4-(2-pyridinyl)phenyl]methyl]-2,5,6,10,13-pentaazatetradecanedioate], the “half-life as compared to atazanavir” value in data set [1] (human liver microsomes, first run) was “increased half-life”. In data set [1] (human, 1 μM, pH 7.4), the “increase in half-life as compared to atazanavir” value is approximately 67%. Moreover, the half-life at 1 μM in data set [1] (setting [2]) was determined as 35.4 ± 1.68 min; in data set [1] (setting [3]), 28.3 ± 0.3 min.
